Measured values as given in the supplement of paper PMC6315032.

Assays:
Experiment in all cases: apparent dissociation constant (pKDapp, Kinobeads competition, Cheng-Prusoff corrected) (-log10 M); higher = tighter binding
LIMK1 = LIMK1 (UniProt P53667); settings: affinity matrix / lysate: Kinobeads, mixed HEK293/K-562/placenta lysate
PIK3C3 = PIK3C3 (UniProt Q8NEB9); settings: affinity matrix / lysate: Lipid Kinobeads, mixed HeLa/Jurkat/K-562 lysate
MAPK14 = MAPK14 (UniProt Q16539); settings: affinity matrix / lysate: Kinobeads, mixed HEK293/K-562/placenta lysate
EPHB6 = EPHB6 (UniProt O15197); settings: affinity matrix / lysate: Kinobeads, mixed HEK293/K-562/placenta lysate
CSK = CSK (UniProt P41240); settings: affinity matrix / lysate: Kinobeads, mixed HEK293/K-562/placenta lysate
CSK, sequence (P41240 whole entry, looked up): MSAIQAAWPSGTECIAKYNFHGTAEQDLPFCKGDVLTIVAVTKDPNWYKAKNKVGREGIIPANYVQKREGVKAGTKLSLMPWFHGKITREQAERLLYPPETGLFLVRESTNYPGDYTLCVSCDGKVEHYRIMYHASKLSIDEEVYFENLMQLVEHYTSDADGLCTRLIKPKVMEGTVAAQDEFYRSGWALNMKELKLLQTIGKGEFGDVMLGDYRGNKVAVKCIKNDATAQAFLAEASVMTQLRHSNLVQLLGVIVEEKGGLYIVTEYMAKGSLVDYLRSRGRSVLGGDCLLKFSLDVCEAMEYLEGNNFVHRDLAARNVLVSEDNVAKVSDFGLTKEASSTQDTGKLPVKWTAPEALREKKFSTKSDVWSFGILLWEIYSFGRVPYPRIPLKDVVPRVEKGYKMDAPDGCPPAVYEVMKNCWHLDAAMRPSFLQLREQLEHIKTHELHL

RIOK2 = RIOK2 (UniProt Q9BVS4)
RIOK2, sequence (Q9BVS4 whole entry, looked up): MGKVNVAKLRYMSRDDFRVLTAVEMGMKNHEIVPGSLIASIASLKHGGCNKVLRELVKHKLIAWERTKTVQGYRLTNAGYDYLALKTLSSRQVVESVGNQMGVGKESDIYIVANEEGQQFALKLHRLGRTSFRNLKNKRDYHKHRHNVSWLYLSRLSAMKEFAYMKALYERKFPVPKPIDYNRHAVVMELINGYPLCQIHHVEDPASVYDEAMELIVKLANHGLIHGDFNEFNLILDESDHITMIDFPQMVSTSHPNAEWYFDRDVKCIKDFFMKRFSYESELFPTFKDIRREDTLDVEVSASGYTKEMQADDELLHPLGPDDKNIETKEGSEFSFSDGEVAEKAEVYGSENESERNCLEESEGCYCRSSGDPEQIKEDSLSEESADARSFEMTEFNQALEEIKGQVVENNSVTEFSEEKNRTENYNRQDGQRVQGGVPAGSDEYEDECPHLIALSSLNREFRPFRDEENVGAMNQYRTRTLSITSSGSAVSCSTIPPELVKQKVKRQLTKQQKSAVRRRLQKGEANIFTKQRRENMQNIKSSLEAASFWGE

RPS6KB1 = RPS6KB1 (UniProt P23443); settings: affinity matrix / lysate: Kinobeads, mixed HEK293/K-562/placenta lysate
SGK3 = SGK3 (UniProt Q96BR1); settings: affinity matrix / lysate: Kinobeads, mixed HEK293/K-562/placenta lysate
ACVR2B = ACVR2B (UniProt Q13705); settings: affinity matrix / lysate: Kinobeads, mixed HEK293/K-562/placenta lysate
ACVR2B, sequence (Q13705 whole entry): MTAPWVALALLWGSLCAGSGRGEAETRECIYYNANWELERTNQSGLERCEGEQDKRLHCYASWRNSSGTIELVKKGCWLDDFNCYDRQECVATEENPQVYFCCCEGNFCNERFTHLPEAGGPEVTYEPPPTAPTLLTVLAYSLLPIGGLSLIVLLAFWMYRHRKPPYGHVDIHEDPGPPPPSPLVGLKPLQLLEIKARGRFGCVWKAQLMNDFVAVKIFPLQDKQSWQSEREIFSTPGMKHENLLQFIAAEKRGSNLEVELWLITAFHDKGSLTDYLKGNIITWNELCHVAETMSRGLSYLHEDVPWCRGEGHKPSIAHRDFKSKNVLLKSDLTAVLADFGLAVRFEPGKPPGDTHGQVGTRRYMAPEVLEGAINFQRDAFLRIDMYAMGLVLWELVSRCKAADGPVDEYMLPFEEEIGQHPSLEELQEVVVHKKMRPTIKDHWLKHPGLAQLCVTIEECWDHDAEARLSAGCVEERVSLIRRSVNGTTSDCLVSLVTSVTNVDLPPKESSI

PRKG1 = PRKG1 (UniProt Q13976); settings: affinity matrix / lysate: Kinobeads, mixed HEK293/K-562/placenta lysate
KSR1 = KSR1 (UniProt Q8IVT5); settings: affinity matrix / lysate: Kinobeads, mixed HEK293/K-562/placenta lysate
MKNK1 = MKNK1 (UniProt Q9BUB5); settings: affinity matrix / lysate: Kinobeads, mixed HEK293/K-562/placenta lysate
PDGFRA = PDGFRA (UniProt P16234); settings: affinity matrix / lysate: Kinobeads, mixed HEK293/K-562/placenta lysate
PDGFRA, sequence (P16234 whole entry): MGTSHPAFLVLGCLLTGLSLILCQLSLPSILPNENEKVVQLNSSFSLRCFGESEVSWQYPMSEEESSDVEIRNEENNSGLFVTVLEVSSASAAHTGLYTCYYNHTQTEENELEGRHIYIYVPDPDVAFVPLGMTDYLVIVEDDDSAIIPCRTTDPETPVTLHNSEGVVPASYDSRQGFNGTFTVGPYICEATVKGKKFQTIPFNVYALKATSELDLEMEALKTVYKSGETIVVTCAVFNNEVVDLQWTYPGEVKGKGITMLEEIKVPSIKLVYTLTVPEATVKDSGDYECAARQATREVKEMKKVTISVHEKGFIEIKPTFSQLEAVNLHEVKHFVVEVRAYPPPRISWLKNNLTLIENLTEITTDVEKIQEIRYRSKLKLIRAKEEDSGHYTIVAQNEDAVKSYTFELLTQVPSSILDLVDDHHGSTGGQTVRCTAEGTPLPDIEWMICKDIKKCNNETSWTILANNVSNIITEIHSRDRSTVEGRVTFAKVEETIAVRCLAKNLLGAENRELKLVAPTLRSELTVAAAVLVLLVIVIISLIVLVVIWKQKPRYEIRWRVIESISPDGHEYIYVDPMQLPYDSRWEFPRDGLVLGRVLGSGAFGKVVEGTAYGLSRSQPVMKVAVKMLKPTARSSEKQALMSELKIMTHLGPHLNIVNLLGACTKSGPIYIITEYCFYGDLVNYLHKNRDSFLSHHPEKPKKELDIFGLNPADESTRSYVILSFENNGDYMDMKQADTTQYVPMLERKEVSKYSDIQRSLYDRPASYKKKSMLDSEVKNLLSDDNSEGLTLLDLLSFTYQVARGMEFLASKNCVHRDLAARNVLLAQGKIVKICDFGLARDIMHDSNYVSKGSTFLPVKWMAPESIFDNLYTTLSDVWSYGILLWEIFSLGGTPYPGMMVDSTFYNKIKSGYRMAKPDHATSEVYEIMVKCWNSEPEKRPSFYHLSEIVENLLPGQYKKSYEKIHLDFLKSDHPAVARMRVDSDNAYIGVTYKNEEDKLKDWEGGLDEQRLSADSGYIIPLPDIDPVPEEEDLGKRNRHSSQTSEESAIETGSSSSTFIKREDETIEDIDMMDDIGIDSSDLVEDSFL

CRKRS = CRKRS (UniProt Q9NYV4); settings: affinity matrix / lysate: Kinobeads, mixed HEK293/K-562/placenta lysate
PI4KB = PI4KB (UniProt Q9UBF8); settings: affinity matrix / lysate: Lipid Kinobeads, mixed HeLa/Jurkat/K-562 lysate
PKN1 = PKN1 (UniProt Q16512); settings: affinity matrix / lysate: Kinobeads, mixed HEK293/K-562/placenta lysate
OXSR1 = OXSR1 (UniProt O95747); settings: affinity matrix / lysate: Kinobeads, mixed HEK293/K-562/placenta lysate
MAP2K1 = MAP2K1 (UniProt Q02750); settings: affinity matrix / lysate: Kinobeads, mixed HEK293/K-562/placenta lysate
MELK = MELK (UniProt Q14680); settings: affinity matrix / lysate: Kinobeads, mixed HEK293/K-562/placenta lysate
MARK1 = MARK1 (UniProt Q9P0L2); settings: affinity matrix / lysate: Kinobeads, mixed HEK293/K-562/placenta lysate
IRAK1 = IRAK1 (UniProt P51617); settings: affinity matrix / lysate: Kinobeads, mixed HEK293/K-562/placenta lysate
PRKCZ = PRKCZ (UniProt Q05513); settings: affinity matrix / lysate: Kinobeads, mixed HEK293/K-562/placenta lysate
ABL1 = ABL1 (UniProt P00519); settings: affinity matrix / lysate: Kinobeads, mixed HEK293/K-562/placenta lysate
LATS2 = LATS2 (UniProt Q9NRM7); settings: affinity matrix / lysate: Kinobeads, mixed HEK293/K-562/placenta lysate
LATS2, sequence (Q9NRM7 whole entry): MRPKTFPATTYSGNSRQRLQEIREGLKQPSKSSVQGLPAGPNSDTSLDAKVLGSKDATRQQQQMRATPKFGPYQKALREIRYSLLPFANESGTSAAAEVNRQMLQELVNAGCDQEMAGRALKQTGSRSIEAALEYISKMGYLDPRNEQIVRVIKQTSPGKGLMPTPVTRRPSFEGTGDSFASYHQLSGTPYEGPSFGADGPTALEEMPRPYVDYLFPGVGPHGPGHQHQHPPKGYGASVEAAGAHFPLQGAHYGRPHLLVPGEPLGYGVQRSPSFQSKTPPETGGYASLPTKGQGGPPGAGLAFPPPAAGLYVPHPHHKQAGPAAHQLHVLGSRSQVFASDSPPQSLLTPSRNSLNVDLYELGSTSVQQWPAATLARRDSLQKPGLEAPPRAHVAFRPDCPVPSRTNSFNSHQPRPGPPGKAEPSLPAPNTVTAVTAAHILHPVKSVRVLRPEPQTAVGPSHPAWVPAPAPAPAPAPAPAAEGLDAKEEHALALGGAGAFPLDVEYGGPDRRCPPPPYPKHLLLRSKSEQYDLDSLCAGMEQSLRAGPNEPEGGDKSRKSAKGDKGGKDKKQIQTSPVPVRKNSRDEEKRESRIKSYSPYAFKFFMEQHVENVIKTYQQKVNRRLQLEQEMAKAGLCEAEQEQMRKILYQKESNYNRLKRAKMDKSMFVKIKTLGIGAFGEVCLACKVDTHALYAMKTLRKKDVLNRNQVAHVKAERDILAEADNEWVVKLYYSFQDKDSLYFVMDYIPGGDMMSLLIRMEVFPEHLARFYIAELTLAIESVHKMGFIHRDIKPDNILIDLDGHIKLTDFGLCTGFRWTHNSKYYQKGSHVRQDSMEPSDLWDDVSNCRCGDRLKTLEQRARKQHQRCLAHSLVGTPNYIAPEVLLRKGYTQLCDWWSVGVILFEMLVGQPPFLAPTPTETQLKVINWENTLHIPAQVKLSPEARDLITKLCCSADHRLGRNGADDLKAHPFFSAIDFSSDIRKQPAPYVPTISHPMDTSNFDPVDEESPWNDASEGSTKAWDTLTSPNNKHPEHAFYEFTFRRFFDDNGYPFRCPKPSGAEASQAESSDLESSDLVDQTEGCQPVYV

CDC42BPA = CDC42BPA (UniProt Q5VT25); settings: affinity matrix / lysate: Kinobeads, mixed HEK293/K-562/placenta lysate
NUAK1 = NUAK1 (UniProt O60285); settings: affinity matrix / lysate: Kinobeads, mixed HEK293/K-562/placenta lysate
NUAK1, sequence (O60285 whole entry): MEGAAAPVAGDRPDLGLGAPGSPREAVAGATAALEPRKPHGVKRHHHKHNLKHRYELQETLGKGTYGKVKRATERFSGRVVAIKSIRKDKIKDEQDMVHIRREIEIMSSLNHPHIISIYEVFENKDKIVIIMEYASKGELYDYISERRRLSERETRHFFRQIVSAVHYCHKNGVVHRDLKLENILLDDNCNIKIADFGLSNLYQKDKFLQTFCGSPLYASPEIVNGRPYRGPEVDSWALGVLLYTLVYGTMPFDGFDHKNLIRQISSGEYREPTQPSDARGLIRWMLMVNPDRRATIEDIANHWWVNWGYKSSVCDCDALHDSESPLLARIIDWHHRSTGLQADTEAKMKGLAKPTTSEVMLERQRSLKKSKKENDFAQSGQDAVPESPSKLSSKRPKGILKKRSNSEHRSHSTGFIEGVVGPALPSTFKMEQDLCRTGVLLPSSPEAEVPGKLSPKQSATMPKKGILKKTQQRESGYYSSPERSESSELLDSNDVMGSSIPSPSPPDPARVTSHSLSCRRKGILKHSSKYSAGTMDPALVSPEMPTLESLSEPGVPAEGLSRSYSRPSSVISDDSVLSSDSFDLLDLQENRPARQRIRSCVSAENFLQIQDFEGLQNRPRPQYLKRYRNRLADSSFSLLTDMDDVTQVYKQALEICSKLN

CDC42BPB = CDC42BPB (UniProt Q9Y5S2); settings: affinity matrix / lysate: Kinobeads, mixed HEK293/K-562/placenta lysate
STK11 = STK11 (UniProt Q15831); settings: affinity matrix / lysate: Kinobeads, mixed HEK293/K-562/placenta lysate
STK11, sequence (Q15831 whole entry): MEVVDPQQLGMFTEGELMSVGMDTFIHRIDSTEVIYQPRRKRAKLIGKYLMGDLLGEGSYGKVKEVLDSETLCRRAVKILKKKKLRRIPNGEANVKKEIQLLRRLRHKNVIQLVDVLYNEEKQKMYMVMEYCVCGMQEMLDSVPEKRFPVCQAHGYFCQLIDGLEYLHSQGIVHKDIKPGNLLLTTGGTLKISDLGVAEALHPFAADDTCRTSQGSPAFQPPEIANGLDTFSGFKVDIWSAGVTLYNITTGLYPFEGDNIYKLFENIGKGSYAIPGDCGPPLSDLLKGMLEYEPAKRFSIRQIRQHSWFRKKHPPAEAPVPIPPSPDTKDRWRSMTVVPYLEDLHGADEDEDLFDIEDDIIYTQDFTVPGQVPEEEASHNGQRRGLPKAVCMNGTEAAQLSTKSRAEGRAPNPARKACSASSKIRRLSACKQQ

PIK3CG = PIK3CG (UniProt P48736); settings: affinity matrix / lysate: Lipid Kinobeads, mixed HeLa/Jurkat/K-562 lysate
LRRK2 = LRRK2 (UniProt Q5S007); settings: affinity matrix / lysate: Kinobeads, mixed HEK293/K-562/placenta lysate
JAK2 = JAK2 (UniProt O60674); settings: affinity matrix / lysate: Kinobeads, mixed HEK293/K-562/placenta lysate
FYN = FYN (UniProt P06241); settings: affinity matrix / lysate: Kinobeads, mixed HEK293/K-562/placenta lysate
AAK1 = AAK1 (UniProt Q2M2I8); settings: affinity matrix / lysate: Kinobeads, mixed HEK293/K-562/placenta lysate
[1] = affinity matrix / lysate: Kinobeads, mixed HEK293/K-562/placenta lysate
[2] = affinity matrix / lysate: Lipid Kinobeads, mixed HeLa/Jurkat/K-562 lysate

Measured: apparent dissociation constant (-log10 M)

COc1ccc(-c2ccc3c(N4CCOC[C@@H]4C)nc(N4CCOC[C@@H]4C)nc3n2)cc1CO [AZD8055]
< 6: LIMK1 | PIK3C3 | MAPK14 | EPHB6 | CSK | RIOK2; [1] | RIOK2; [2] | RPS6KB1 | SGK3 | ACVR2B | PRKG1 | KSR1 | MKNK1 | PDGFRA | CRKRS | PI4KB | PKN1 | OXSR1 | MAP2K1 | MELK | MARK1 | IRAK1 | PRKCZ | ABL1 | LATS2 | CDC42BPA | NUAK1 | CDC42BPB | STK11 | PIK3CG | LRRK2 | JAK2 | FYN | AAK1

CCNC(=O)Nc1ccc(-c2nc(N3CCOC[C@@H]3C)c3c(n2)C(C)(C)S(=O)(=O)C3)cc1 [CZ415]
< 6: LIMK1 | PIK3C3 | MAPK14 | EPHB6 | CSK | RIOK2; [1] | RIOK2; [2] | RPS6KB1 | SGK3 | ACVR2B | PRKG1 | KSR1 | MKNK1 | PDGFRA | CRKRS | PI4KB | PKN1 | OXSR1 | MAP2K1 | MELK | MARK1 | IRAK1 | PRKCZ | ABL1 | LATS2 | CDC42BPA | NUAK1 | CDC42BPB | STK11 | PIK3CG | LRRK2 | JAK2 | FYN | AAK1
